Measurements from patent US10456405B2, “Nitric oxide-releasing prodrug molecule of substituted quinazolines” (ZHEJIANG HUAHAI PHARMACEUTICAL CO., LTD, priority 2015, dated 2019).
Where two headings read alike, the source gives them in different places.

Assays:
[1] = Plasma stability in vitro, mouse plasma; settings: CD-1 mice plasma, 2 μM, 37° C., in % (unit assumed)
Protocol: (§1) Experimental method: The tested compounds (2 μM) were added into mouse or human plasma, and incubated at 37° C. Samples were taken at 0, 10, 30, 60 and 120 min respectively. The reaction was stopped by adding a stop agent. The mixture was sufficient shaken, and centrifuged at 4000 rpm for 10 min at 4° C. The supernatant was taken. The concentrations of the tested compounds and their metabolite (H130) in the supernatant were measured by LC-MS/MS.

[2] = tested on: ApoA-I mRNA; test: Regulation of ApoA-I mRNA in HepG2 cells (real-time PCR); assay type: cell-based; set-up: key: Active: When 100 μM of the tested compound allowed ApoA-I mRNA in HepG2 cells to increase more than 15%, then the test compound was known as an ApoA active compound; settings: 100 μM, 48 h, relative to DMSO control
Protocol: Experiment 5. Regulation of the Tested Compounds on ApoA-I mRNA HepG2 cells were cultured for 24 h in a 24-well plate with 400 μl of MEM medium containing 0.5% (v/v) of fetal bovine serum. Then each of the tested compounds (100 μM) and the positive control RVX-208 (100 μM) were added. The cells were cultured for another 48 h. The medium was aspirated out. After washing with 200 μl of PBS, 85 μl of cell lysis solution was added into the cells in each well. The cells were incubated at room temperature for 5 to 10 min to be completely dissolved and detached. The mRNA was extracted from the cells with a kit. The extracted mRNA were used for a real-time fluorescence quantitative PCR detection with RNA Fluorescence (RiboGreen) Quantitation Assay Kit and ApoA-I mRNA Primer-Probe Mixture from the company of Applied Biosystems.
After obtaining the Ct values, the induction fold of each test compound relative to DMSO control was calculated. The induction fold was used to reflect the ability of regulating ApoA-I mRNA for the tested compounds. When 100 μM of the tested compound allowed ApoA-I mRNA in HepG2 cells to increase more than 15%, then the test compound was known as an ApoA active compound.

[3] = Release of HNO (headspace gas chromatography of nitrous oxide); settings: PBS pH 7.4, 37° C., argon, 90 min
Protocol: Experiment 2. Experimental study on the tested compounds for releasing HNO HNO rapidly dimerizes and dehydrates to produce nitrous oxide in aqueous solution. In the experiment of detecting HNO, gas chromatographic headspace analysis is generally used to determine the amount of the released nitrous oxide, thereby indirectly detect the level of releasing HNO of the compound.
Experimental procedure: Each of the tested compounds was prepared to 20 mg/mL of mother liquor with DMF. Prior to the start of the experiment, 50 μL of drug mother liquor was placed into a 20 mL headspace sample vial. The tested compound was diluted by adding 5 mL of PBS buffer with pH 7.4. The temperature of the resulting sample was kept at 37° C. under argon gas for 90 min. Then the top gas was extracted for gas chromatographic analysis of nitrous oxide by using Angeli's Salt as a positive compound in the experiment.

[4] = Plasma stability in vitro, human plasma; settings: for Content of Tested Substance (n = 2): human plasma, 2 μM, 37° C., in % (unit assumed); for stability in human plasma: within 2 h
Protocol: as §1

[5] = Release of nitric oxide in vitro (Griess reagent, nitrite); settings: 10^−4 mol/L tested substance, phosphate buffer pH 7.4, cysteine 5 mmol/L, 37° C., 1 h; as nitrite
Protocol: Experiment 1. Experimental Study on the Tested Compounds for Releasing Nitric Oxide in vitro
Experimental Procedure: • (1) Preparation of Griess Reagent: 4 g of aminobenzenesulfonamide, 0.2 g of N-naphthyl ethylene diamine hydrochloride, and 10 mL of 85% phosphoric acid solution were taken to form a solution, which is diluted to 100 mL with distilled water. • (2) Plotting of the standard curve: a serie of standard solution of 0.01, 0.03, 0.05, 0.07, 0.09, 0.2, 0.4 μg/mL of nitrite nitrogen was prepared, 10 mL of each was taken to sufficiently mix with 2.5 mL of Griess reagent, standing at room temperature for 10 min, and its absorbance value at the wavelength of 540 nm was measured. The standard curve was plotted based on the resulting data. • (3) Measuring the amount of the released NO of the tested drug: all of the tested substances were dissolved in dimethylsulfoxide (1 mL) firstly. Then phosphate buffer (pH 7.4) was slowly added dropwise, and shaken. The drug solution was diluted to 50 mL, allowing the buffer solution to contain excess cysteine (5 mmol/L), and the final concentration of the tested substances being 10^−4 mol/L; the solution was incubated at 37° C. 2 mL of the reaction solution was taken to mix with 500 μl of Griess reagent at 1 h respectively, standing at room temperature for 10 min. The absorbance value of the mixture at 540 nm was measured. Isosorbide mononitrate was used as a positive control, and H130 was used as a negative control. The amount of the released NO was represented by the amount of its oxidation product, nitrite (NO2^−).

[6] = tested on: db/db mice; test: Serum NO and heart eNOS in db/db mice after oral gavage; assay type: in vivo; settings: blank = 100, oral gavage 150 mg/kg (isosorbide mononitrate 5 mg/kg), 1 h after administration (H101: 2 h)
From the text: Experimental method: 25 eight-week-old db/db mice (strain: BKS.Cg−+Leprdb/+leprdb/JclSlac; grade: SPF; gender: male; source: Shanghai SLAC Laboratory Animal Co., Ltd.) were selected. 3 of them were selected as the blank administration control. 2 mice were used as the positive drug control (isosorbide mononitrate). The remaining 20 mice were randomly divided into 5 groups, 4 mice per group, which are H101 administration group, H111 administration group, H116 administration group, H119 administration group, and H130 administration group. The tested compounds of the positive drug control group and each administration group were dissolved in DMSO. Then PEG400 was added. The mixture was shaken and mixed thoroughly. At last, 10% of HP-β-CD was added. The mixture was shaken and mixed thoroughly. The ratio of each solvent was DMSO: PEG400:10% of HP-β-CD=5:67.5:27.5. The administration group was administered by oral gavage at the dose of 150 mg/kg. The positive drug control group was administered at the dose of 5 mg/kg. The mice in the H101 administration group were sacrificed at 2 h after the administration. The mice in the remaining administration groups were sacrificed at 1 h after the administration. The blood was collected respectively into 1.5 mL centrifuge tube, standing at room temperature for more than 30 min, and then centrifuged (3000 rpm, 10 min). The supernatant serum was aspirated, and stored at −80° C. for testing. After the blood was collected, the heart was cut with the thoracic aorta. Three parts of the heart were weighed and placed into cryovials, rapidly frozen in liquid nitrogen, and cryopreserved at −80° C. for testing. The aorta and aortic arch were weighed, rapidly frozen in liquid nitrogen, and cryopreserved at −80° C. for testing. The content of NO in the serum of the […] mice was determined by a total NO test kit (Beyotime). The content of NOS in the heart of the mice was determined with an NOS test kit (Beyotime). The content of eNOS was calculated by the difference between the measured values before and after adding the eNOS inhibitor L-NAME (Beyotime).

[7] = tested on: C57BL/6 mice; test: Serum NO level in C57 mice after oral gavage; assay type: in vivo; settings: oral gavage 150 mg/kg (positive drug 5 mg/kg), FIG. 1
From the text: Experimental method: 60 eight-week-old C57BL/6 mice (level: SPF; gender: male; source: Shanghai SLAC Laboratory Animal Co., Ltd.) were selected. […] were selected as the blank control. 12 mice were used as the positive drug control (isosorbide mononitrate). 12 mice were used as […] administration group. The other 32 mice were randomly divided into 4 groups, 8 mice per group, which are […] administration group, […] administration group, […] administration group, and […] administration group, respectively. The tested compounds of the positive drug control group and each administration group were dissolved in DMSO and then PEG400 was added thereto. The mixture was shaken and mixed thoroughly. At last, 10% of HP-β-CD was added. The mixture was shaken and mixed thoroughly. The ratio of each solvent was DMSO: PEG400:10% of HP-β-CD=5:67.5:27.5. The administration groups were administered by oral gavage at the dose of 150 mg/kg. The positive drug control group was administered at the dose of 5 mg/kg. The mice in each group were sacrificed by inhaling excess CO2 at 10 min, 30 min, 60 min, 120 min, 180 min, and 240 min after administration. The blood was collected into a 1.5 mL centrifuge tube, standing at room temperature for more than 30 min, and then centrifuged (3000 rpm, 10 min). The supernatant serum was aspirated, and stored at -80° C. for testing. After the blood was collected, the heart was cut with the thoracic aorta. Three parts of the heart were weighed and placed into cryovials, rapidly frozen in liquid nitrogen, and cryopreserved at -80° C. for testing. The aorta and aortic arch were weighed, rapidly frozen in liquid nitrogen, and cryopreserved at -80° C. for testing. The content of NO in the serum of C57BL/6 mice was determined by using the total NO test kit (Beyotime).

[8] = rat, in vivo
Protocol: Experimental method: Intravenous injection solutions (the administration concentrations of the tested compounds were 1 mg/kg) and oral gastric perfusates (the administration concentrations of the test compounds were 5 mg/kg) of the test compounds were prepared, and intravenously and orally administered to three SD rats, respectively. The concentrations of the whole blood for H130 at 0.083 h, 0.25 h, 0.5 h, 1 h, 2 h, 4 h, 8 h, and 24 h after administration were determined by LC-MS/MS, respectively. The pharmacokinetic parameters were compared by a drug-time curve. Sample pretreatment: 150 μL of the whole blood to be tested was aspirated accurately. 600 μL of internal standard solution (diluted to 0.5 μg/mL with methanol) was added, sufficiently mixed by a vortex mixer, and centrifuged at 13000 r/min for 20 min at 4° C. 3 μL of the supernatant was taken into a sample vial.
Chromatographic conditions: C18 reversed-phase chromatographic column; gradient elution with mobile phase A: water/acetonitrile (v:v=95:5) with 0.025% of formic acid and 1 mM of ammonium acetate added thereto, and mobile phase B: acetonitrile/water (v:v=95:5) with 0.025% of formic acid and 1 mM of ammonium acetate added thereto.

SMILES | Content of Tested Substance (n = 2) ([1]; 0 min) | Content of Tested Substance (n = 2) ([1]; 10 min) | Content of Tested Substance (n = 2) ([1]; 30 min) | Content of Tested Substance (n = 2) ([1]; 60 min) | Content of Tested Substance (n = 2) ([1]; 120 min) | Upregulation of Apoa-I Mrna Level [2] | Content of Tested Substance (n = 2) ([4]; 0 min) | Content of Tested Substance (n = 2) ([4]; 10 min) | Content of Tested Substance (n = 2) ([4]; 30 min) | Content of Tested Substance (n = 2) ([4]; 60 min) | Content of Tested Substance (n = 2) ([4]; 120 min) | stability in human plasma [4] | Amount of Released No [5] [µM] | further results
COc1cc(OC)c2c(=O)[nH]c(-c3cc(C)c(OCCOC(=O)ONS(=O)(=O)c4ccc(C)o4)c(C)c3)nc2c1 [Compound H104, N-((2-(4-(5,7-dimethoxy-4-oxo-3,4-dihydroquinazolin-2-yl)-2,6-dimethylphenoxy)ethoxy)carbonyloxy)-5-methylfuran-2-sulfonamide] | 100.0 | 0.5 | 0.0 | 0.0 | 0.3 | Active | 100.0 | 99.5 | 88.7 | 81.1 | 75.8 | good stability | – | Molar Quantities of N2O/Sample [3]: 23.6%
COc1cc(OC)c2c(=O)[nH]c(-c3cc(C)c(OCCOC(=O)CCC(CO[N+](=O)[O-])O[N+](=O)[O-])c(C)c3)nc2c1 (stereo not drawn) [Compound H108, 2-[4-(5,7-dimethoxy-4-oxo-3,4-dihydro-quinazolin-2-yl)-2,6-dimethyl-phenoxy]-ethyl 4,5-dinitroxy-pentanoate] | 100.0 | 0.5 | 0.3 | 1.7 | 0.3 | Active | 100.0 | 101.5 | 95.5 | 93.8 | 85.3 | good stability | 0.33 | –
COc1cc(OC)c2c(=O)[nH]c(-c3cc(C)c(OCCOC(=O)CNC(=O)CCCO[N+](=O)[O-])c(C)c3)nc2c1 [Compound H109, 2-[4-(5,7-dimethoxy-4-oxo-3,4-dihydro-quinazolin-2-yl)-2,6-dimethyl-phenoxy]-ethyl (4-nitroxy-butyrylamido)-acetate] | – | – | – | – | – | Active | – | – | – | – | – | – | 1.49 | –
O=[N+]([O-])O[C@@H]1CO[C@H]2[C@@H]1OC[C@@H]2O [Isosorbide Mononitrate, Isosorbide mononitrate, reference compound] | – | – | – | – | – | – | – | – | – | – | – | – | 3.31 | Heart eNOS [6]: 169%; Serum NO [6]: 136%; time after administration at which serum NO level rose to its maximum, then decreased [7]: 2 h
COc1cc(OC)c2c(=O)[nH]c(-c3cc(C)c(OCCOC(=O)CC(N)C(=O)OCC(CO[N+](=O)[O-])O[N+](=O)[O-])c(C)c3)nc2c1.Cl (stereo not drawn) [Compound H118, 1-(2,3-dinitroxy-propyl) 4-{2-[4-(5,7-dimethoxy-4-oxo-3,4-dihydro-quinazolin-2-yl)-2,6-dimethyl-phenoxy]-ethyl}2-amino-succinate hydrochloride] | – | – | – | – | – | Active | – | – | – | – | – | – | 1.74 | release of prototype compound H130 after administration [8]: can be rapidly released; AUCRatio (Dosage Calibration) ([8]; iv, 1 mg/kg): 19.2%; AUCRatio (Dosage Calibration) ([8]; po, 5 mg/kg): 14.1%
COc1cc(OC)c2c(=O)[nH]c(-c3cc(C)c(OCCOC(=O)CCC(=O)OCC(CO[N+](=O)[O-])(CO[N+](=O)[O-])CO[N+](=O)[O-])c(C)c3)nc2c1 [Compound H106, 2-[4-(5,7-dimethoxy-4-oxo-3,4-dihydro-quinazolin-2-yl)-2,6-dimethyl-phenoxy]-ethyl 3-(nitroxy)-2,2-di((nitroxy)methyl) propyl succinate] | – | – | – | – | – | Active | – | – | – | – | – | – | 2.56 | –
